# Experimental data taken from patent US20250314644A1, “METHODS COMPRISING DETECTION OF ADP-HEPTOSE” (CHILDREN'S HOSPITAL MEDICAL CENTER, priority 2023, published 2025).
# Legend:
# Dnmt3a^−/− HSCs = assay: ADP-heptose treatment of low-dose irradiated chimeric mice: donor HSC number in BM, EdU proliferation, secondary transplant; assay type: in vivo, mouse
# Text: To model pre-leukemic clonal hematopoiesis, chimeric mice were generated as aas follows. Briefly, mixture of 1×10^6 whole bone marrow cells (WBM) were obtained from Poly (I:C) treated wild-type (Dnmt3a^+/+; MxCre^+, called Dnmt3a^WT) or mutant mice (Dnmt3a^f/f; MxCre^+, called Dnmt3a^KO) or double mutant mice (Dnmt3a^f/f; MxCre^+; Alpk1^KO, called Dnmt3a^KO; Alpk1^KO) (CD45.2^+), and transplanted into low-dose (2.5 Gy) irradiated recipient mice (CD45.1^+; 6-10 weeks of age). 8 weeks post-transplant, chimeric mice were treated with either water (H2O) or DSS (2.5%) for 1 week, and allowed to recover for 1 more week on water after which flow cytometry was performed on BM. In separate experiment, chimeric mice were pre-treated with broad spectrum antibiotics (ABX) for 4 weeks, and then subjected to DSS for 1 week after which flow cytometry performed on BM. In a separate set of experiment, chimeric mice were treated with either H2O or ADP-heptose (0.5 mg/kg) for 2 weeks, and flow cytometry performed after 2 more weeks on BM. In all the experiments, secondary transplantation was performed by purifying donor HSCs (CD45.2^+Lin^−Sca-1^+c-Kit^+Flk2^−CD150^+CD48^−) and transplanting 100 HSCs with 200,000 helper WBM cells (CD45.1+) into lethally irradiated (8 Gy) recipient mice (CD45.1^+), and donor chimerism in PB examined by flow cytometry.
# [1] = test system: Dnmt3a^−/−; Alpk1^−/− HSPCs; assay: NF-κB activation in vitro (immunoblot); assay type: cell-based, mouse
# [2] = test system: Dnmt3a^KO; Alpk1^KO cells; assay: RNA-sequencing of HSPCs treated in vitro with ADP-heptose or H2O for 90 minutes; assay type: cell-based, mouse; conditions: vs H2O
structure (smiles),measurement,setting,value
"Nc1ncnc2c1ncn2[C@@H]1O[C@H](COP(=O)(O)OP(=O)(O)O[C@@H]2O[C@H]([C@H](O)CO)[C@@H](O)[C@H](O)[C@@H]2O)[C@@H](O)[C@H]1O [ADP-heptose, ADP-D-glycero-β-D-manno-heptose]",expansion of Dnmt3a^−/− HSCs in BM,Dnmt3a^−/− HSCs; ADP-heptose 0.5 mg/kg for 2 weeks,rapid and significant expansion
same,proliferation of HSCs in vivo (EdU),"Dnmt3a^−/− HSCs; Dnmt3a^−/− HSCs, within 2 weeks",significant proliferation
same,self-renewal in secondary recipient mice,Dnmt3a^−/− HSCs; secondary transplant of donor HSCs,sustained self-renewal
same,NF-κB activation upon ADP-heptose stimulation,[1],unable to activate NF-κB
same,logFC 7fp418,[2],−0.871
same,logFC 1110019D14Rik,[2],−0.854
same,logFC 1700037C18Rik,[2],0.829
same,logFC 2810408A11Rik,[2],−0.812
same,logFC 4930451G09Rik,[2],0.8284
same,logFC 4933407K13Rik,[2],−0.692
same,logFC 5031425F14Rik,[2],0.715
same,logFC 9330182L06Rik,[2],−1.241
same,logFC A430105I19Rik,[2],1.602
same,logFC A930013F10Rik,[2],0.5873
same,logFC AI607873,[2],0.7333
same,logFC Abcb4,[2],0.7782
same,logFC Ambp,[2],0.8742
same,logFC Aqp1,[2],0.6005
same,logFC Arg1,[2],1.214
same,logFC Azin2,[2],0.7217
same,logFC BC100530,[2],−0.982
same,logFC Bambi-ps1,[2],−0.651
same,logFC Caprin2,[2],−0.787
same,logFC Ces1d,[2],−0.735
same,logFC Cgref1,[2],1.029
same,logFC Ctsf,[2],−0.836
same,logFC Ctsk,[2],−0.954
same,logFC D630023F18Rik,[2],−0.819
same,logFC Epha7,[2],−0.73
same,logFC Erdr1,[2],−1.542
same,logFC Foxd4,[2],−0.677
same,logFC Gas6,[2],−0.682
same,logFC Gbp9,[2],1.092
same,logFC Gm4285,[2],−1.087
same,logFC Gm5069,[2],−0.82
same,logFC Gm15694,[2],0.9249
same,logFC Gm16023,[2],0.8494
same,logFC Gm21057,[2],−1.133
same,logFC Hist1h1e,[2],−0.799
same,logFC Hist1h2be,[2],−1.019
same,logFC Hist1h4h,[2],−1.162
same,logFC Hmga1,[2],−0.621
same,logFC Irf7,[2],0.6473
same,logFC Isg15,[2],0.6427
same,logFC Kif1a,[2],−0.954
same,logFC Kif9,[2],1.387
same,logFC Lars2,[2],−1.194
same,logFC Lrrc51,[2],1.737
same,logFC Ltc4s,[2],0.978
same,logFC Ly6i,[2],0.764
same,logFC Nefh,[2],0.6222
same,logFC Nr1h3,[2],−0.655
same,logFC Oas1g,[2],0.6168
same,logFC Oas2,[2],0.8787
same,logFC Oas3,[2],0.6718
same,logFC Oasl1,[2],0.7357
same,logFC Oasl2,[2],0.9665
same,logFC Paqr3,[2],−0.758
same,logFC Pcsk9,[2],−1.15
same,logFC Rhcg,[2],1.146
same,logFC Rn45s,[2],−1.533
same,logFC Rsad2,[2],0.9464
same,logFC Rtp4,[2],1.172
same,logFC Sdhaf3,[2],−0.856
same,logFC Sfxn4,[2],−1.009
same,logFC Slfn5,[2],1.078
same,logFC Stac3,[2],0.7901
same,logFC Stbd1,[2],0.9881
same,logFC Stxbp3-ps,[2],−0.814
same,logFC Syp,[2],0.7928
same,logFC Tagln,[2],1.205
same,logFC Tchh,[2],1.26
same,logFC Tle6,[2],−0.734
same,logFC Usp18,[2],0.7247
same,logFC Xaf1,[2],0.6469
same,logFC Zbp1,[2],0.6712
same,logFC Zdhhc2,[2],0.7176
same,logFC Zdhhc15,[2],0.9343
same,logFC Zfp54,[2],−0.829
